# Test results: US20250214990A1, “DIACYLGLYCEROL KINASE (DGK) ALPHA INHIBITORS AND USES THEREOF” (Insilico Medicine IP Limited, priority 2022, published 2025)
# Molecular target: T1, DGKA (Homo sapiens, UniProt P23743)
# T1 construct: purchased SignalChem D21-10BG
# Assay: DGKA Inhibition ADP-Glo Assay
# Assay type: biochemical
# Settings: 40 μM ATP
# Method: The DGKA inhibition reactions were performed using ADP-Glo assay. The reactions were carried out in 50 mM HEPES, 100 mM NaCl, 10 mM MgCl2, 1 mM CaCl2, 0.005% TritonX-100 and 1 mM DTT as working solution (pH=7.5). 30 nL DMSO solution of each test compound (Top concentration […] with 10 point, 4-fold dilution series for each compound) were transferred to 384 well plate by Echo and 5 μL DGKA (SignalChem, D21-10BG) enzyme working solution at 2× final reaction concentration was added to each well. After incubated at 25° C. for 15 minutes, 5 μL substrate working solution contain 40 μM ATP (Promega, V915B) and 200 µM DLG (SignalChem, D430-59) were added to initiate reaction. After enzymatic reaction at 25° C. for 60 min, ADP Glo assay reagents (Promega, V9102) were added and luminescence was recorded using an EnVision following the instruction of manual. […] The IC50 value was calculated via a regression analysis of the inhibition rate.
# T1 sequence (P23743 whole entry): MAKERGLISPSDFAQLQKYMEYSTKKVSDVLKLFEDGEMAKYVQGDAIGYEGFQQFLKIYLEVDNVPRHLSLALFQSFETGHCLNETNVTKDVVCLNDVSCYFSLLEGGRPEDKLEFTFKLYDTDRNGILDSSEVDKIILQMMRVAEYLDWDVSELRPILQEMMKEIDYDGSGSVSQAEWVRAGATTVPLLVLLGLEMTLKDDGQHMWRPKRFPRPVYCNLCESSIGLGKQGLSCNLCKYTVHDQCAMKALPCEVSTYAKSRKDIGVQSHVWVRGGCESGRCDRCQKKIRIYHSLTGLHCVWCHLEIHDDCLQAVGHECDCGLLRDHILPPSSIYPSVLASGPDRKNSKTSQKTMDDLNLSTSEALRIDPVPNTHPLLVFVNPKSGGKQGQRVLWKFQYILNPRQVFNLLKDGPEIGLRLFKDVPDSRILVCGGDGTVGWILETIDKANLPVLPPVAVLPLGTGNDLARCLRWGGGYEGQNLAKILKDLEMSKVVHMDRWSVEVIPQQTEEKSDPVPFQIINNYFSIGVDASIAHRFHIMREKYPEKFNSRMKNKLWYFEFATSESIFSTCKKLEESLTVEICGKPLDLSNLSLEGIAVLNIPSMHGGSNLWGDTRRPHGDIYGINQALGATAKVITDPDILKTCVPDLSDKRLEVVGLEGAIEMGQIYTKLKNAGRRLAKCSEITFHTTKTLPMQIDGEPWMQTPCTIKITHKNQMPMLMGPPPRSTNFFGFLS
row,Compound,IC50 [nM]
1,"COc1cccc2c1COCCN2c1nc(=O)n(C)c2cc(OCCO)c(Cl)cc12 [Example 42, 6-chloro-7-(2-hydroxyethoxy)-4-(6-methoxy-2,3-dihydrobenzo[e][1,4]oxazepin-1(5H)-yl)-1-methylquinazolin-2(1H)-one]",1 to 10
2,"Cn1c(=O)nc(N2CCOCc3c(C#CC4(C(F)(F)F)CC4)cccc32)c2cc(Cl)c(O[C@@H]3CCOC3)cc21 [Example 22, (R)-6-chloro-1-methyl-7-((tetrahydrofuran-3-yl)oxy)-4-(6-((1-(trifluoromethyl)cyclopropyl)ethynyl)-2,3-dihydrobenzo[e][1,4]oxazepin-1(5H)-yl)quinazolin-2(1H)-one]",< 1
3,"Cn1c(=O)nc(N2CCOCc3c(C#CC4(C(F)(F)F)CC4)cccc32)c2cc(C#N)c(NCCO)cc21 [Example 16, 7-((2-hydroxyethyl)amino)-1-methyl-2-oxo-4-(6-((1-(trifluoromethyl)cyclopropyl)ethynyl)-2,3-dihydrobenzo[e][1,4]oxazepin-1(5H)-yl)-1,2-dihydroquinazoline-6-carbonitrile]",< 1
4,"Cn1c(=O)cc(N2CCOCc3c(C#CC4(C(F)(F)F)CC4)cccc32)c2nc(Cl)ccc21 [Example 1, 6-chloro-1-methyl-4-(6-((1-(trifluoromethyl)cyclopropyl)ethynyl)-2,3-dihydrobenzo[e][1,4]oxazepin-1(5H)-yl)-1,5-naphthyridin-2(1H)-one]",< 1
5,"Cn1c(=O)nc(N2CCOCc3c(C#CC4(C(F)(F)F)CC4)cccc32)c2cc(C#N)c(OC3CCOCC3)cc21 [Example 26, 1-methyl-2-oxo-7-((tetrahydro-2H-pyran-4-yl)oxy)-4-(6-((1-(trifluoromethyl)cyclopropyl)ethynyl)-2,3-dihydrobenzo[e][1,4]oxazepin-1(5H)-yl)-1,2-dihydroquinazoline-6-carbonitrile]",< 1
6,"Cc1cccc2c1COCCN2c1nc(=O)n(C)c2cc(OCCO)c(Cl)cc12 [Example 38, 6-chloro-7-(2-hydroxyethoxy)-1-methyl-4-(6-methyl-2,3-dihydrobenzo[e][1,4]oxazepin-1(5H)-yl)quinazolin-2(11H)-one]",1 to 10
7,Cn1c(=O)nc(N2CCOCc3c(C#CC4(C(F)(F)F)CC4)cccc32)c2nc(C#N)ccc21 [Example 8],< 1
8,"Cn1c(=O)nc(N2CCOCc3c(C#CC4(C(F)(F)F)CC4)cccc32)c2nc(Cl)ccc21 [Example 7, 6-chloro-1-methyl-4-(6-((1-(trifluoromethyl)cyclopropyl)ethynyl)-2,3-dihydrobenzol[e][1,4]oxazepin-1(5H)-yl)pyrido[3,2-d]pyrimidin-2(1H)-one]",< 1

# More lines, now with the values ahead:
row,IC50 [nM],Compound
1,< 1,"C#Cc1cccc2c1COCCN2c1nc(=O)n(C)c2cc(OCCO)c(Cl)cc12 [Example 39, 6-chloro-4-(6-ethynyl-2,3-dihydrobenzo[e][1,4]oxazepin-1(5H)-yl)-7-(2-hydroxyethoxy)-1-methylquinazolin-2(1H)-one]"
2,< 1,"Cn1c(=O)nc(N2CCOCc3c(C#CC4(C(F)(F)F)CC4)cccc32)c2cc(Cl)c(O[C@H]3CCOC3)cc21 [Example 21, (S)-6-chloro-1-methyl-7-((tetrahydrofuran-3-yl)oxy)-4-(6-((1-(trifluoromethyl)cyclopropyl)ethynyl)-2,3-dihydrobenzo[e][1,4]oxazepin-1(5H)-yl)quinazolin-2(1H)-one]"
3,< 1,"Cn1c(=O)nc(N2CCOCc3c(C#CC4(C(F)(F)F)CC4)cccc32)c2cc(C#N)ccc21 [Example 6, 1-methyl-2-oxo-4-(6-((1-(trifluoromethyl)cyclopropyl)ethynyl)-2,3-dihydrobenzo[e][1,4]oxazepin-1(5H)-yl)-1,2-dihydroquinazoline-6-carbonitrile]"
4,< 1,"Cn1c(=O)nc(N2CCOCc3c(N4CCCC4)cccc32)c2cc(C#N)c(OCCO)cc21 [Example 46, 7-(2-hydroxyethoxy)-1-methyl-2-oxo-4-(6-(pyrrolidin-1-yl)-2,3-dihydrobenzo[e][1,4]oxazepin-1(5H)-yl)-1,2-dihydroquinazoline-6-carbonitrile]"
